{"source": "patent US20160106719A1", "about": "“Transplantation Adjuvant in Cell Therapy Using Neural Progenitor Cells” (SUMITOMO DAINIPPON PHARMA CO., LTD., priority 2013, published 2016)", "key": {"[1]": {"system": "re-aggregated PSA-NCAM+ cells (neural progenitor cells derived from mouse iPS cell line 440A3)", "assay": "In vitro differentiation of mouse iPS cell-derived neural progenitor cells into dopaminergic neurons (immunocytochemistry for marker molecules)", "type": "cell-based", "conditions": "for ratio of TH+ cells: day 10 to 14, control 5.2±1.1%", "method": "DMEM contained 1% fetal bovine serum (FBS), 5% knockout serum replacement (KSR; manufactured by Invitrogen), 0.1 mM non-essential amino acids, 1 mM sodium pyruvate, 0.1 mM 2-mercaptoethanol (2-ME; manufactured by Invitrogen), 2000 U/ml leukemia inhibitory factor (manufactured by Invitrogen), and 1.5 μg/ml puromycin. In order to differentiate and induce the iPS cells into neural cells, serum-free floating culture of embryoid bodies-like aggregates (SFEB) was employed. Specifically, aggregates of the 440A3 cells were separated into individual cells by using 0.25% trypsin/1 mM EDTA (ethylenediaminetetraacetic acid), and the resultant cells were seeded in a 96-well low adhesion plate (product name: Lipidure-Coat Plate A-US96, manufactured by NOF Corporation) at a concentration (cell density) of 3000 cells/well. Thereafter, re-aggregation of the 440A3 cells was induced in a differentiation medium containing GMEM (Glasgow Minimum Essential Medium), 5% KSR, 0.1 mM non-essential amino acids, 1 mM sodium pyruvate and 0.1 mM 2-ME, and this day was defined as day 0 (FIG. 1). During this differentiation process, various factors were added to the differentiation medium for inducing midbrain dopaminergic phenotypes as illustrated in FIG. 1. Specifically, from day 3 to day 7 after starting the SFEB, 20 ng/ml of mouse FGF-8b (manufactured by R & D Systems) was added, from day 4 to day 7 after starting the SFEB, 10 ng/ml of recombinant mouse sonic hedgehog (C25I1) N-terminus (manufactured by R & D Systems) was added, and on and after day 7 after starting the SFEB, 1% N-2 supplement (manufactured by Gibco) and 200 nM ascorbic acid were added. The KSR was removed from the differentiation medium on day 7 after starting the SFEB.\nOn day 9 after starting the SFEB, the 440A3 cells were washed with phosphate buffered saline (PBS(-)) twice. Thereafter, the 440A3 cells were dissociated into single cells by five-minute incubation performed at 37° C. by using Accumax (manufactured by Innovate Cell Technologies, product name). The cells were collected with a FACS buffer. The FACS buffer was constituted by PBS(-) containing 2% FBS, 20 mM D-glucose and 1% penicillin/streptomycin (P/S, manufactured by Invitrogen). The collected cells were mechanically dissociated into a single cell suspension by a gentle pipetting operation.\nNext, the resultant cells were incubated with a mouse anti-PSA-NCAM antibody (dilution rate of 1:200, manufactured by Millipore) at 4° C. for about 30 minutes. Thereafter, a washing operation using a centrifuge was performed twice, and the resultant cells were further incubated for 30 minutes with a secondary antibody of a donkey anti-mouse IgG (dilution rate of 1:400, manufactured by Invitrogen) labeled with AlexaFluor 594. Dead cells and cell debris were excluded by using 7-aminoactinomycin-D (7-AAD, manufactured by BD Pharmigen) stain. The remaining living cells were suspended again at a final concentration (cell density) of 1×10^7 cells/ml. Cell sorting was conducted by using a FACSAria II cell sorter (manufactured by Becton Dickinson And Company) equipped with a 488 nm argon laser, a 633 nm helium-neon laser, a 100 μm nozzle and a FACSDiva software program. A PSA-NCAM positive rate was determined on the basis of a negative control not using a primary antibody.\nAfter the cell sorting, in order to induce the reaggregation of the cells, a PSA-NCAM^+ cell group was seeded in a DMEM/F12 medium (manufactured by Wako Pure Chemical Industries, Ltd.) in a 96-well plate at a concentration (cell density) of 20000 cells/well. The DMEM/F12 medium contained 1% N-2 supplement, 200 nM ascorbic acid, 2% B27 supplement (manufactured by Invitrogen), 0.5 mM L-glutamine and 1% P/S. In order to prevent apoptosis, a ROCK inhibitor, Y-27632 (manufactured by Wako Pure Chemical Industries, Ltd.), was used at a concentration of 30 μM during the cell sorting process and the following overnight cultivation. […]"}, "[2]": {"system": "TH+ neurons derived from mouse iPS cells", "assay": "In vitro survival of TH+ neurons with caspase 3 expression as index of apoptosis", "type": "cell-based", "conditions": "control 18.0±5.9%; no significant difference among four groups", "method": "After the cell sorting, in order to induce the reaggregation of the cells, a PSA-NCAM^+ cell group was seeded in a DMEM/F12 medium (manufactured by Wako Pure Chemical Industries, Ltd.) in a 96-well plate at a concentration (cell density) of 20000 cells/well. The DMEM/F12 medium contained 1% N-2 supplement, 200 nM ascorbic acid, 2% B27 supplement (manufactured by Invitrogen), 0.5 mM L-glutamine and 1% P/S. In order to prevent apoptosis, a ROCK inhibitor, Y-27632 (manufactured by Wako Pure Chemical Industries, Ltd.), was used at a concentration of 30 μM during the cell sorting process and the following overnight cultivation. On day 10 after starting the SFEB, any one of valproic acid (VPA) (manufactured by Sigma-Aldrich), zonisamide (ZNS) sodium salt (manufactured by Sumitomo Dainippon Pharma Co., Ltd.), 17β estradiol (E2) (manufactured by Sigma-Aldrich), a glial cell line derived neurotrophic factor (GDNF) (manufactured by R & D Systems) and PBS(-) was added to the medium for 4 days. Each of VPA, ZNS and E2 was used at three different concentrations. Specifically, the concentration of VPA was 0.01 mM, 0.1 mM or 1 mM, the concentration of ZNS was 1 μM, 10 μM or 100 μM, and the concentration of E2 was 1 nM, 10 nM or 100 nM. GDNF was added at a concentration of […] to be used as a positive control. […]"}}, "data": [{"smiles": "CCCC(CCC)C(=O)[O-].[Na+]", "note": "[VPA, sodium 2-propylpentanoate]", "values": [{"measurement": "ratio of TH+ cells", "setting": "[1]; VPA 0.01 mM", "value": "12.1±1.5", "unit": "%"}, {"measurement": "ratio of TH+ FOXA2+ cells", "setting": "[1]; VPA 0.1 mM, control 0.25±0.22%", "value": "1.00±0.58", "unit": "%"}, {"measurement": "ratio of TH+ NURR1+ cells", "setting": "[1]; VPA 0.1 mM, control 0.37±0.32%", "value": "1.00±0.70", "unit": "%"}, {"measurement": "ratio of TH+ cells", "setting": "[1]; VPA 0.1 mM", "value": "11.7±0.4", "unit": "%"}, {"measurement": "ratio of dopaminergic neurons undergoing apoptosis (TH+ neurons expressing caspase 3)", "setting": "[2]", "value": "low"}]}]}
